Source: PMC4772543, “Immune responses to Mycobacterial heat shock protein 70 accompany self-reactivity to human BiP in rheumatoid arthritis” (Scientific Reports, 2016)

How the values were obtained:
HLA-DRB1*0401 = target: T1, HLA-DRB1*0401 (Homo sapiens, UniProt P01903+P01911, A100K/A169T/F76Y/I96L/K127E/L162R/M171V/N62H/P40V/Q125Y/R42H/S133A/S149N/S66Y/V115G/V209L/W38E); assay: HLA-DR4 peptide binding assay (competition with labelled HA peptide); conditions: inhibition of labelled HA peptide (0.5 nM) binding to 40 nM purified DR4, 37 °C, 4 h
T1 construct: Soluble DR4 molecules in the supernatant were collected and purified; made in house; host or cells: Drosophila S2 cells
Excerpt: (§1) Figure 4 HLA-DR4 binding assay. (A) Binding activities between a HLA-DRB1*0401 and 0405 molecule and MycHSP70_287–306. Binding activities were estimated by the inhibition of peroxidase-labeled HA307–318 peptide binding to a HLA-DRB1 molecule. (B) Binding of MycHSP70_287–306 with alanine-substituted peptides to HLA-DRB1*0405 molecules. A MycHSP70_287–306-derived peptide in which an amino residue was substituted by an alanine residue. Inhibitory concentration 50% (IC50) was used as a measure of binding activity. *p < 0.05, **p < 0.01, ***p < 0.001.
(§2) The procedure to assess peptide binding to HLA-DRB1*0401 and 0405 was described in a previous study. In brief, HLA-DRA1B1*0401 and 0405 was cloned and transfected into S2 Drosophila cells. Soluble DR4 molecules in the supernatant were collected and purified through an affinity column coupled with the anti-DR antibody LB3.1. In the peptide binding assay, a 40 nM solution of purified DR4 was incubated at 37 °C for 4 h with the HA307–319 peptide (0.5 nM), which had been labeled at the N terminus with biotin. The indicated concentrations of the peptides were added as competitors to HA peptide binding. […] Bound biotinylated peptides were detected by an incubation with streptavidin-alkaline phosphatase. An automatic microplate reader (Bio-rad 550, Bio-rad) was used to measure optical density.

HLA-DRB1*0405 = target: T2, HLA-DRB1*0405 (Homo sapiens, UniProt P01903+P01911, A100R/A169T/D86S/F76Y/I96L/K127E/L162R/M171V/N62H/P40V/Q125Y/R42H/S133A/S149N/S66Y/V115G/V209L/W38E); assay: as above; conditions: inhibition of labelled HA peptide (0.5 nM) binding to 40 nM purified DR4, 37 °C, 4 h
T2 construct: Soluble DR4 molecules in the supernatant were collected and purified; made in house; host or cells: Drosophila S2 cells
Excerpt: as §1, §2

[1] = tested on: collagen-induced arthritis in DBA/1 J mice; assay: Oral administration of peptide in collagen-induced arthritis (CIA); format: in vivo, mouse
Procedure: Figure 6 Oral tolerance of MycHSP70_287–306 peptides in a collagen-induced arthritis model. (A,B) The MycHSP70_287–306 peptide or control (PBS alone) was orally administered to bovine type II collagen-immunized DBA/1 J mice after the occurrence of CIA for 5 continuous days (n = 12). Mice were sacrificed on day 35. Arthritis scores were measured by finger and paw swelling, and histological scores were measured by cell infiltration (C), pannus formation (P), and bone destruction (B). (C) Splenic CD4^+ T cell proliferation from CIA-induced DBA/1 J mice in response to a recall antigen (Ag) stimulation (MycHSP70_287–306 and BiP336–355 epitopes, and heat-denatured bovine type II collagen (BC II)). Proliferation was determined by[3]-H thymidine incorporation. (D) Serum anti-BiP and anti-BC II antibody titers were measured by ELISA. (E,F) Mouse IL-10 and TGF-beta1 concentrations in the splenic CD4^+ T cell culture were measured by ELISA. Data were representative of at least three independent trials. *p < 0.05, **p < 0.01, ***p < 0.001.
Serum antibodies were measured by ELISA as previously reported. Briefly, 96-well plates (Thermo Fisher Scientific) were coated with 5 μg/mL of each antigen and dissolved in 0.1 M NaHCO3. Diluted samples (100x) were applied, followed by goat anti-human IgG-horseradish peroxidase (HRP) (5000:1,Vector) or goat anti-mouse IgG-HRP (5000:1, Life Technologies) detection antibodies and TMB solution (KPL) for development.
CIA in the background of DBA/1 J female mice (SLC Japan) was performed and arthritis scores were acquired as previously described. In the therapeutic experiments, mice were administered 200 μg of MycHSP287–306 peptides orally for 5 continuous days following the onset of arthritis. Mice were sacrificed on day 35, and the CD4^+ T cell culture was performed as described above. Mouse cytokine concentrations in the supernatants were measured using a mouse IL-10 ELISA kit and mouse/human TGF-beta 1 ELISA kit (eBioscience) according to the manufacturer’s protocol. Tissue samples were embedded in paraffin wax after 10% formaldehyde fixation and decalcification. Sections were stained with hematoxylin and eosin. Synovial tissues were graded by mononuclear cell infiltration, pannus formation, and cartilage erosion, as described previously. All animal experiments were conducted in accordance with Institutional and National Guidelines, and the protocols were approved by the Ethical Committee on Animal Experiments of the University of Tokyo. […]
Oral tolerance of MycHSP70287-306 peptides on collagen-induced arthritis (CIA) model. The experimental protocol was the same as Figure 6.
(A)(B)Mouse IL-17 and IFN-gamma concentrations in the splenic CD4+ T cell culture was measured by ELISA (Mouse cytokine ELISA ready-set-go, eBioscience) according to the manufacture’s protocol. (C) The frequencies of splenic regulatory T cells in CIA (n=4, each). FACS analysis was performed by FACS Vantage (BD Bioscience). Cells were stained by anti-mouse CD4
APC antibody, anti-mouse CD25 FITC antibody, FOXP3 staining was performed using anti-mouse Foxp3 PE antibody (eBioscience) by using […]

[2] = CIA mice given peptide orally vs PBS, ELISA

Sequence: DRTRKPFQSVIADTGISVSE [MycHSP70_287–306]
- binding to HLA-DRB1*0401 molecule (HLA-DRB1*0401): bound
- binding to HLA-DRB1*0405 molecule (HLA-DRB1*0405): bound
- development of arthritis (arthritis scores) ([1]; 200 μg peptide orally for 5 continuous days after onset of arthritis, vs PBS, n = 12, sacrificed day 35): significantly improved
- histological scores ([1]; 200 μg peptide orally for 5 continuous days, cell infiltration, pannus formation, bone destruction, day 35): significantly improved
- serum anti-BC II antibody titers [1, 2]: significantly decreased
- serum anti-BiP antibody titers [1, 2]: significantly decreased
- frequency of CD4+ CD25+ Foxp3+ regulatory T cells ([1]; splenic, CIA mice given peptide orally vs PBS, n=4 each, FACS): increased
